According to paper PMC8595653, “Activation of specific bitter taste receptors by olive oil phenolics and secoiridoids” (Scientific Reports, 2021):
pEC50: −log10 of the molar value. “Also recorded” adds a separate entry of the source. Each block holds one molecule with its values, some of them ahead of it.

Key:
TAS2R8 = biological target: T1, TAS2R8 (Homo sapiens, UniProt Q9NYW2); assay: Calcium mobilization functional assay, TAS2R8 co-expressed with Gα16-gust44 and GCaMP in HEK293E cells; type: cell-based; conditions: for times more potent than oleuropein: potency of bitter receptor activation relative to oleuropein (1); for potency and efficacy on TAS2R8 in words: concentration-response experiments, maximal concentration 10 mM for oleuropein
T1 construct: first 45 amino acids of rat somatostatin type 3 receptor (SSTR3) export tag (N); expressed in transfected cells; host or cells: HEK293E
T1 sequence (Q9NYW2 1-309): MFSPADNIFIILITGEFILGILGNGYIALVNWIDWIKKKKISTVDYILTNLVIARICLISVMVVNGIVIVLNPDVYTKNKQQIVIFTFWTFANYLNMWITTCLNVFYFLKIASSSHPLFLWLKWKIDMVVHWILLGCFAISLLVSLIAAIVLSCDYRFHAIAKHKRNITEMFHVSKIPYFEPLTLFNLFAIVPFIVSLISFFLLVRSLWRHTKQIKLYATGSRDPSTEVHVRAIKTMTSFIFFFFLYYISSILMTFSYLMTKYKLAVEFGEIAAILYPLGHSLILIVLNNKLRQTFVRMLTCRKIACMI
Description: (§1) All constructs were confirmed by DNA sequencing.
(§2) Data from single dose experiments were collected as duplicates. […] Data represent mean ± SD.
(§3) To characterize the bitterness of olive oil phenolic compounds, we performed calcium mobilization experiments. The 25 bitter taste receptors, G protein chimera (Gα16-gus44), and the GCaMP calcium sensor[68] were transiently expressed in HEK293E cells. Twelve olive oil phenolic compounds (Fig. 1) were tested for bitter taster receptor activation (Fig. 3). […] Ligstroside aglycon, and Oleuropein aglycon activated TAS2R1, TAS2R8 and TAS2R14 receptors. To validate the single dose scanning results, we performed concentration–response experiments for all the compounds toward receptors TAS2R1, TAS2R8, and TAS2R14 that produced the most significant responses (Fig. 4).

TAS2R1 = biological target: T2, TAS2R1 (Homo sapiens, UniProt Q9NYW7); assay: Calcium mobilization functional assay, TAS2R1 co-expressed with Gα16-gust44 and GCaMP in HEK293E cells; type: cell-based
T2 construct: first 45 amino acids of rat somatostatin type 3 receptor (SSTR3) export tag (N); expressed in transfected cells; host or cells: HEK293E
T2 sequence (Q9NYW7 1-299): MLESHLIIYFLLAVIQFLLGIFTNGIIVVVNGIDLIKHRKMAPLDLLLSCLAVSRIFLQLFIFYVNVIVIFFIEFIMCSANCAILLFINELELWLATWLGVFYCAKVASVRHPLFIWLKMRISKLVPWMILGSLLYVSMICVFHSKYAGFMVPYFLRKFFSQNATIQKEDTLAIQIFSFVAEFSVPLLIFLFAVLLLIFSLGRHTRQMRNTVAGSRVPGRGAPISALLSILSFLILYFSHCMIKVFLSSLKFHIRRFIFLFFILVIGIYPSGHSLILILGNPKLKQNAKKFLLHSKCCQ
Description: as §1, §2, §3

TAS2R14 = biological target: T3, TAS2R14 (Homo sapiens, UniProt Q9NYV8); assay: Calcium mobilization functional assay, TAS2R14 co-expressed with Gα16-gust44 and GCaMP in HEK293E cells; type: cell-based
T3 construct: first 45 amino acids of rat somatostatin type 3 receptor (SSTR3) export tag (N); expressed in transfected cells; host or cells: HEK293E
T3 sequence (Q9NYV8 1-317): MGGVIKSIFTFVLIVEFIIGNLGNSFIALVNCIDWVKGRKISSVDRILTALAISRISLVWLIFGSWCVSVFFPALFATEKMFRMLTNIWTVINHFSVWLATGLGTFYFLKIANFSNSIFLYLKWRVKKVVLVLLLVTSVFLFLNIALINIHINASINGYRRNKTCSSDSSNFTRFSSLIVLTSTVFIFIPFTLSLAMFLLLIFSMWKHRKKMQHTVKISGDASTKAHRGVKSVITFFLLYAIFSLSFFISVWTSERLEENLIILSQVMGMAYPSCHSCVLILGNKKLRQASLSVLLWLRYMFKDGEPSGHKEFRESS
Description: as §1, §2, §3

25 human TAS2Rs = assay: Single dose scanning of phenolic compounds on the 25 bitter taste receptors (calcium mobilization, HEK293E); type: cell-based; conditions: single dose 300 µM, 25 TAS2Rs, N = 2
Description: as §1, §2, §3
Figure 3 Phenolic compound bitter taste activity tests on hTAS2Rs. Relative fluorescence signals caused by phenolic compound activation of the receptors and the empty vector as a negative control. The concentration of the compounds used was [300 µM], except for Ligstroside aglycon and Oleuropein aglycon [200 µM], oleuropein that was [3 mM]. The asterisks indicate significant differences tested by one-way ANOVA (***p < 0.0001) (N = 2). Data represent mean ± SD.

TAS2R38 = TAS2R38 (Homo sapiens, UniProt P59533); conditions: 1 mM, versus empty pcDNA vector
Sequence of TAS2R38 (P59533 whole entry): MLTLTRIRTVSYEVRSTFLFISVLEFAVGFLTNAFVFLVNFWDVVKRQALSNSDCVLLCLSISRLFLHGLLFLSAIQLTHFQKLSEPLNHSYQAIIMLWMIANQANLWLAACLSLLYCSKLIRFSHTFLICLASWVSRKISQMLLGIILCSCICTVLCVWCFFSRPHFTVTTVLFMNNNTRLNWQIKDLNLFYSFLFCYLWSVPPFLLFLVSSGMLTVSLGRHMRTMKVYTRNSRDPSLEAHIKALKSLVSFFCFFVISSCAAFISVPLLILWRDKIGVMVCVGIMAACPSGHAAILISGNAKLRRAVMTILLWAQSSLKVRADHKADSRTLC
Description: 25 human TAS2R genes were subcloned into the pcDNA 3.1 vector, as previously descripted in the literature[44],[53]. The first 45 amino acids of the rat somatostatin type 3 receptor, which serves as a cell-surface-targeting signal, were added to the N-termini of the TAS2Rs to target them more efficiently to the cell surface. Herpes simplex virus (HSV) glycoprotein D epitopes were added to the carboxy termini of the receptors for immunocytochemistry. All constructs were confirmed by DNA sequencing.
HEK293E cells were cultured at 37 °C in DMEM (Thermo Fisher Scientific), supplemented with 10% fetal bovine serum (FBS) and 1% Penicillin Streptomycin. The cells were seeded onto 96-well plates (Clear Bottom Black Polystyrene Poly-D-Lysine Coated Microplates, Corning life sciences) at a density of 50,000 (in 100 μl DMEM) per well, and cultured at 37 °C for overnight. On the second day following seeding, the medium was changed to OPTI-MEM supplemented with 5% FBS (filtered) before co-transfection using Polyethylenimine (PEI) (1.6 μg/well) with plasmid DNAs encoding TAS2Rs (0.1 μg/well), Gα16-gust44 (0.06 μg/well) and the GCaMP calcium sensor (0.035 μg/well). After 24 h, the medium was changed to fresh OPTI-MEM supplemented with 5% FBS (filtered) and 0.1% Plasmocin (InvivoGen). […]

[1] = HEK293E, normalized to the highest response of TAS2R8 to oleuropein aglycon (100%), N = 3

- times more potent than oleuropein (TAS2R8): ~50 times
SMILES: COC(=O)C1=COC(C)C(C=O)C1CC(=O)OCCc1ccc(O)c(O)c1 (single isomer, unassigned; isomer a) [Oleuropein aglycon closed-type (5a), oleuropein aglycon closed-type (isomer A)]

- Emax (TAS2R8; [1]): 100%
- pEC50 (TAS2R8; dose-response, N = 3, HEK293E): 4.24
- times more potent than oleuropein (TAS2R8): ~50 times
- activation of TAS2R8 (TAS2R8; single dose 200 µM): activated
- Emax (TAS2R1; [1]): 67.6%
- pEC50 (TAS2R1; dose-response, N = 3, HEK293E): 3.85
- activation of TAS2R1 (TAS2R1; single dose 200 µM): activated
- potency and efficacy on TAS2R14 in words (TAS2R14; concentration-response experiments, compared with ligstroside aglycon): even less potent and efficacious
- activation of TAS2R14 (TAS2R14; single dose 200 µM): activated
SMILES: COC(=O)C1=COC(C)C(C=O)C1CC(=O)OCCc1ccc(O)c(O)c1 (single isomer, unassigned; isomer b) [Oleuropein aglycon (5b), oleuropein aglycon closed-type (isomer B)]

- activation of TAS2R8 over background (TAS2R8; single dose 300 µM): activate
- activation of TAS2R8 over background (TAS2R8; single dose 300 µM, listed as elenolic acid): activated significantly
SMILES: COC(=O)C1=COC(C)C(C=O)C1CC(=O)O (stereo not drawn) [Elenolic acid, elenolic acid]
- potency and efficacy on TAS2R8 in words (TAS2R8): activated weakly and less potently; also recorded: activated TAS2R8 with lower potency

- activation of any TAS2R (25 human TAS2Rs): failed to activate any bitter receptor
SMILES: OCCc1ccc(O)c(O)c1 [Hydroxytyrosol, hydroxytyrosol]

SMILES: C/C=C(/C=O)[C@@H](CC=O)CC(=O)OCCc1ccc(O)c(O)c1 [Oleacein, oleacein]
- activation of any TAS2R (25 human TAS2Rs): did not activate any TAS2Rs; also recorded: did not show any activation of bitter receptors; also recorded: failed to activate any TAS2Rs

- potency and efficacy on TAS2R8 in words (TAS2R8): activated TAS2R8 with lower potency
- potency and efficacy on TAS2R8 in words (TAS2R8; listed as oleocanthalic acid): activated weakly and less potently
- activation of TAS2R8 over background (TAS2R8; single dose 300 µM): activate
- activation of TAS2R8 over background (TAS2R8; single dose 300 µM, listed as oleocanthalic acid): activated significantly
SMILES: C/C=C(/C=O)[C@@H](CC(=O)O)CC(=O)OCCc1ccc(O)cc1 [Oleocanthalic acid, oleocanthalic acid]

- potency and efficacy on TAS2R8 in words (TAS2R8): activated weakly and less potently
- potency and efficacy on TAS2R8 in words (TAS2R8; listed as oleomissinal): activated TAS2R8 with lower potency
- activation of TAS2R8 over background (TAS2R8; single dose 300 µM): activate
- activation of TAS2R8 over background (TAS2R8; single dose 300 µM, listed as oleomissional): activated significantly
SMILES: C/C=C(/C=O)C(CC(=O)OCCc1ccc(O)c(O)c1)/C(=C/O)C(=O)OC (stereo not drawn) [Oleomissional, oleomissional]

- activation of any TAS2R (25 human TAS2Rs; listed as oleoside-11-methyl ester): failed to activate any bitter receptor
SMILES: CC=C1C(OC2OC(CO)C(O)C(O)C2O)OC=C(C(=O)OC)C1CC(=O)O (stereo not drawn) [Oleoside-methylester, oleoside-11-methylester]
- activation of any TAS2R (25 human TAS2Rs; listed as oleoside-methylester): did not activate any TAS2Rs; also recorded: failed to activate any TAS2Rs

- potency lower compared to the aglycons (TAS2R8; TAS2R8): 50 fold
- activation of TAS2R8 over background (TAS2R8; single dose 3 mM, listed as oleuropein): activated significantly
SMILES: C/C=C1/[C@H](O[C@@H]2O[C@H](CO)[C@@H](O)[C@H](O)[C@H]2O)OC=C(C(=O)OC)[C@H]1CC(=O)OCCc1ccc(O)c(O)c1 [Oleuropein, oleuropein]
- potency and efficacy on TAS2R8 in words (TAS2R8): high efficacy on TAS2R8 but very low potency and did not reach saturation
- activation of TAS2R8 over background (TAS2R8; single dose 3 mM): activate; also recorded: activated TAS2R8 only

- activation of TAS2R38 (TAS2R38): activated
SMILES: CCCc1cc(=O)[nH]c(=S)[nH]1 [PROP, 6-n-propylthiouracil]
